Measured values reported in patent US10138230B2, “Autotaxin inhibitors” (CANCER RESEARCH TECHNOLOGY LIMITED, priority 2015, dated 2018).

Target: human recombinant ATX (Homo sapiens (Human), UniProt Q13822)
Assay: Autotaxin (ATX) activity Quanta Red assay
Format: biochemical
Details: 15 μM Rac-1-Palmitoyl-glycero-3-phosphocholine, 2 hours room temperature, determined in duplicate
How it was run: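 Choline released from 15 μM LPC substrate by 0.8 μg/mL recombinant human ATX (pH 8.0 Tris, CaCl2, 4% DMSO, 2 h, RT) was detected by coupled Quanta Red fluorescence.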

Row | SMILES | IC50 [nM]
1 | O=C(NC1CC(=O)N(c2ccc(CN3CCCCC3)cc2)C1)c1ccc(CCc2ccccc2)nn1 (stereo not shown) [Compound F205, N-[5-oxo-1-[4-(1-piperidylmethyl)phenyl]pyrrolidin-3-yl]-6-(2-phenylethyl)pyridazine-3-carboxamide] | 7060
2 | O=C(NC1CC(=O)N(c2ccc(CN3CCCCC3)cc2)C1)c1cnc(CCc2ccccc2)s1 (stereo not shown) [Compound F206, N-[5-oxo-1-[4-(1-piperidylmethyl)phenyl]pyrrolidin-3-yl]-2-(2-phenylethyl)thiazole-5-carboxamide] | 9350
3 | COc1ccc(CCc2nnc(NC(=O)C3CC(=O)N(c4ccc(CN5CCOCC5)cc4)C3)o2)cc1 (stereo not shown) [Compound F207, N-[5-[2-(4-methoxyphenyl)ethyl]-1,3,4-oxadiazol-2-yl]-1-[4-(morpholinomethyl)phenyl]-5-oxo-pyrrolidine-3-carboxamide] | 2450
4 | CCN(C)Cc1ccc(N2CC(C(=O)Nc3nnc(CCc4ccc(Cl)cc4)s3)CC2=O)cc1 (stereo not shown) [Compound F211, 1-{4-[(Ethyl-methyl-amino)-methyl]-phenyl}-5-oxo-pyrrolidine-3-carboxylic acid {5-[2-(4-chloro-phenyl)-ethyl]-[1,3,4]thiadiazol-2-yl}-amide] | 9
5 | O=C(Nc1nnc(CCc2ccc(Cl)cc2)s1)[C@H]1CC(=O)N(c2ccc(CN3CCC4(COC4)C3)cc2)C1 [Compound F212, (3S)-N-[5-[2-(4-chlorophenyl)ethyl]-1,3,4-thiadiazol-2-yl]-1-[4-(2-oxa-7-azaspiro[3.4]octan-7-ylmethyl)phenyl]-5-oxo-pyrrolidine-3-carboxamide] | 1
6 | O=C(Nc1nnc(CCc2ccc(Cl)cc2)s1)[C@H]1CC(=O)N(c2ccc(CN3CC4(COC4)C3)cc2)C1 [Compound F213, (3S)-N-[5-[2-(4-chlorophenyl)ethyl]-1,3,4-thiadiazol-2-yl]-1-[4-(2-oxa-6-azaspiro[3.3]heptan-6-ylmethyl)phenyl]-5-oxo-pyrrolidine-3-carboxamide] | 1
7 | CS(=O)(=O)NCc1ccc(N2C[C@H](NC(=O)c3nnc(CCc4ccc(Cl)cc4)s3)CC2=O)cc1 [Compound F214, 5-[2-(4-chlorophenyl)ethyl]-N-[(3R)-1-[4-(methanesulfonamido-methyl)phenyl]-5-oxo-pyrrolidin-3-yl]-1,3,4-thiadiazole-2-carboxamide] | 134
